Results on 1 molecule are retold here after US20240382509A1, “Cannabinoids C- and O-glycosides possessing anti-proliferative and anti-metastatic properties and process for preparation thereof” (Council of Scientific and Industrial Research, priority 2021, published 2024).

For one assay, the system named is PC3 cells. Description: MTT cell viability assay, PC3. Format: cell-based. The following applies: Homo sapiens, PC-3, 48 h, read-out: Cytotoxicity (IC50) PC3, MTT, 48 h. How it is done: (§1) Cell viability assay: The cell viability was determined by the standard MTT assay method. Briefly, Panc-1, HCT-116, A549, PC3, MIAPaca-2, HT-29, MDA-MB-231, MCF7 cells, and fR2cells were seeded in 96 well tissue culture plates (Nunc) at a density of 4×10^3 cells per well and treated with varying concentrations of the test compounds in triplicates. DMSO was taken as a vehicle, and its final concentration was maintained at 0.2% in the culture medium. Doxorubicin was employed as a positive control. After 44 h of incubation, MTT dye solution was added into the medium, and cells were incubated for another 4 h at 37° C. in 5% CO2. The amount of colored formazan derivatives formed was measured by taking optical density (OD) using a microplate reader (TECAN, Infinite M200 Pro) at 570 nm, and the percentage of cell viability was calculated. The IC50 values were calculated using GraphPad Prism software (Version 5.0).
(Tetrazolium dyes change colour on reduction, which living cells bring about.)

The subject of assay [1] is γH2AX, RAD-51, BCL-2, Bax, caspase-3 in HCT-116 cells. Kind of assay: Immunoblot after combinatorial treatment of 5FU and compound 2a. Format: cell-based. From the text:
(§2) The effect of the compound 2a in combination with DNA damaging drug 5-Fluorouracil in colon adenocarcinoma cells was studied. […] Consequently, the major repair factor RAD-51 got diminished as compared to 5FU alone treated lane. The immunoblot results also depicted the downmodulation of cellular survival factor BCL-2 and subsequent upregulation of proapoptotic protein Bax (FIG. 8a). […] Moreover, the effect of the combinatorial treatment on chromosomal stability in HCT-116 cells by chromosome isolation and staining was studied.
The DNA damaging effect of compound 2a in combination with subtoxic doses of 5FU was further analyzed by Annexin/PI staining to check the activation of programmed cell death. […] Cumulatively, compound 2a elevated the DNA damaging effect and eventually leads to programmed cell death in combination with subtoxic doses of 5FU (FIG. 9b).

In another assay the test system is HCT-116 cells. Kind of assay: Chromosome isolation and staining (chromosomal stability). The settings on record: HCT-116, 2a in combination with 5FU, compared to vehicle/750 nM 5FU/3 μM 2a. The format is cell-based.
Description: as §2

Another assay relates to MCF-7 cells. Kind of assay: MTT cell viability assay, MCF-7. Format: cell-based. The settings on record: Homo sapiens, MCF7, 48 h, read-out: Cytotoxicity (IC50) MCF-7, MTT, 48 h; breast cancer cell of epithelial origin. How it is done: as §1
Assay [2] concerns 4T1 mouse mammary carcinoma cells. Kind of assay: 4T1 allograft breast cancer model, anti-tumor and anti-metastatic efficacy. Format: in vivo. How it is done: In vivo anti-metastatic and anti-tumor efficacy studies. 4T1 mouse mammary carcinoma cells is a highly aggressive cell line that forms tumors when grafted in Balb/c mice. […] All the in vivo experimental protocols were approved by the Institutional Animal Ethics Committee, CPCSEA, of the Indian Institute of Integrative Medicine, Jammu. The animals were maintained at 22° C. with a 12 h light-dark cycle and free access to feed and water inside the institutional animal house. Proper care was taken to maintain them in a healthy condition and to avoid any risk of possible pathogenic contaminations. For subcutaneous implantation of 4T1 cells, the Balb/c mice were distributed into four groups bearing five mice in each group. For tumor induction, 1.5 million 4T1 cells were suspended in serum-free media and injected into the mammary pad of the animal and kept in the animal house for tumor induction. After the tumor reached an adequate size (30-150 mm^3) the mice in the allotted groups were treated with vehicle (normal saline), 15 and 30 mg/kg 2a & 30 mg/kg DIM (positive control) for every alternate day and was continued for two weeks. After the treatment, the mice were sacrificed by cervical dislocation, and the tumor was dissected out from the mammary pad, the tumor volume was measured, and images were taken. Subsequently, to examine the anti-metastatic property of the compound 2a, the chest cavity was dissected to remove the lungs, and after washing with PBS, the metastatic nodules in the lung due to 4T1 migration were checked and subsequently counted.
The anti-proliferative as well as anti-metastatic role of compound 2a was studied in 4T1 allograft breast cancer model. Briefly, 1.5×10^6 4T1 mammary breast cancer cells were injected in mouse mammary pad and kept undisturbed until the formation of tumor. Subsequently, the mice were treated with 15 and 30 mg/kg of compound 2a along with a positive control 30 mg/kg di-indoyl methane (DIM) molecule and normal saline as vehicle. The drugs were administered intraperitonially for each alternate day for 2 weeks. The animals were sacrificed and tumours were harvested from the mammary pad and tumor weight was measured (FIG. 7a & b). Moreover, the lungs were also removed and photographed to study the presence of metastatic patches. […] Furthermore, the tumors were subjected to tissue lysis and immunoblot analysis was performed to study the expression of Snail-1. Twist-1, STAT-3, Vimentin and E-cadherin.

A further assay relates to MDA-MB-231 cells. Description: MTT cell viability assay, MDA-MB-231. The following applies: Homo sapiens, aggressive breast cancer cell line of mesenchymal origin. Format: cell-based. How it is done: as §1
Now to study its anti-migratory and anti-metastatic role in another highly metastatic cancer cells of breast origin (MDA-MB 231) the IC50 value was determined by performing MTT assay (FIG. 6a).

The test system of the next assay is Panc-1 cells. Kind of assay: MTT cell viability assay, Panc-1. The settings on record: Homo sapiens, PANC-1, 48 h, read-out: Cytotoxicity (IC50) Panc-1, MTT, 48 h; pancreatic cancer cells. Format: cell-based. The procedure:
as §1

[3] abbreviates: HCT-116, 2a in combination with 5FU.
[4] abbreviates: tumor lysate immunoblot, 30 mg/kg.

For `CCCCCc1cc(O[C@@H]2OC(CO)[C@@H](O)C(O)C2O)c2c(c1)OC(C)(C)[C@@H]1CCC(C)=C[C@@H]21` (stereo partly drawn) [Compound 2a, Δ^9-tetrahydrocannabinol-1-O-β-D-glucopyranoside], the IC50 was determined as 7.17 µM in the assay with PC3 cells, 15.4 µM with MCF-7 cells, 1.42 µM with MDA-MB-231 cells and 3 µM in the assay on Panc-1 cells. In assay [1] (HCT-116, 2a in association with 5FU, 48 and 60 h), the caspase-3 cleavage result is on record as “incite caspase-3 cleavage”. Also, in assay [1] (setting [3]), the BCL-2 survival factor result is “downmodulation”. The “proapoptotic protein Bax” value in assay [1] (setting [3]) is recorded as “upregulation”. Further, the “expression of γH2AX protein (immunoblot)” value in assay [1] (HCT-116, 2a in combination with 5FU, 36 and 48 h) was “enhanced expression”. In addition, in assay [1] (HCT-116, 2a in combination with 5FU, compared to 5FU alone), the RAD-51 repair factor entry was “diminished”. Besides, the chromosomal aberrations entry in the assay with HCT-116 cells was “significantly increases chromosomal abbreations”. Also, in assay [2] (Balb/c mice, 4T1, 15 & 30 mg/kg intraperitoneal, alternate day for 2 weeks), the “metastatic white patches on lungs” value is given as “white patches were not observed”. Moreover, the tumor weight result in assay [2] (Balb/c mice, 4T1, 15 and 30 mg/kg intraperitoneal, alternate day for 2 weeks, vs normal saline) is recorded as “drastically reduced”. Also, in assay [2] (setting [4]), the “tumor E-cadherin level” value is reported as “increased considerably”. Further, the “tumor expression of Twist-1” value in assay [2] (setting [4]) is on record as “curbed”. Besides, in assay [2] (tumor lysate immunoblot, 15 and 30 mg/kg), the “tumor expression of Snail-1, STAT-3 and Vimentin” value is given as “decreases significantly”.

As a reminder, the IC50 is the concentration that inhibits the measured activity by half.
